# Laboratory results as given in PubChem BioAssay (NCI).
#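 Each compound was tested at five concentrations against cells in 96-well plates for 48 hours. GI50 = concentration required for 50% inhibition of growth. The concentration for full growth arrest is given as TGI.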
# Experiments:
# Assay in all cases: NCI tumour cell line growth inhibition, 48 h
# NCI-H23 lung = tested on: NCI-H23 lung
# NCI-H460 lung = tested on: NCI-H460 lung
# NCI-H522 lung = tested on: NCI-H522 lung
# NCI/ADR-RES ovarian = tested on: NCI/ADR-RES ovarian
# OVCAR-3 ovarian = tested on: OVCAR-3 ovarian
# OVCAR-4 ovarian = tested on: OVCAR-4 ovarian
# OVCAR-5 ovarian = tested on: OVCAR-5 ovarian
# OVCAR-8 ovarian = tested on: OVCAR-8 ovarian
# PC-3 prostate = tested on: PC-3 prostate
# RPMI-8226 leukemia = tested on: RPMI-8226 leukemia
# RXF 393 renal = tested on: RXF 393 renal
# SF-268 CNS = tested on: SF-268 CNS
# SF-295 CNS = tested on: SF-295 CNS
# SF-539 CNS = tested on: SF-539 CNS
# SK-MEL-2 melanoma = tested on: SK-MEL-2 melanoma
# SK-MEL-28 melanoma = tested on: SK-MEL-28 melanoma
# SK-MEL-5 melanoma = tested on: SK-MEL-5 melanoma
# SK-OV-3 ovarian = tested on: SK-OV-3 ovarian
# SN12C renal = tested on: SN12C renal
# SNB-19 CNS = tested on: SNB-19 CNS
# SNB-75 CNS = tested on: SNB-75 CNS
# SR leukemia = tested on: SR leukemia
# SW-620 colon = tested on: SW-620 colon
# TK-10 renal = tested on: TK-10 renal
# U251 CNS = tested on: U251 CNS
# UACC-257 melanoma = tested on: UACC-257 melanoma
# UACC-62 melanoma = tested on: UACC-62 melanoma
# UO-31 renal = tested on: UO-31 renal
smiles,measurement,setting,value
COc1ccc(/C=C\c2cc(OC)c(OC)c(OC)c2)cc1OC(=O)c1cccc(Cn2cc(CCOC(=O)[C@H](N)Cc3cn(C)c4ccccc34)nn2)c1,TGI,NCI-H23 lung,63700 nM
same,GI50,NCI-H460 lung,< 10 nM
same,TGI,NCI-H460 lung,> 42800 nM
same,GI50,NCI-H522 lung,< 10 nM
same,TGI,NCI-H522 lung,29400 nM
same,GI50,NCI/ADR-RES ovarian,< 10 nM
same,TGI,NCI/ADR-RES ovarian,23500 nM
same,GI50,OVCAR-3 ovarian,< 10 nM
same,TGI,OVCAR-3 ovarian,18900 nM
same,GI50,OVCAR-4 ovarian,208 nM
same,TGI,OVCAR-4 ovarian,> 85400 nM
same,GI50,OVCAR-5 ovarian,88.6 nM
same,TGI,OVCAR-5 ovarian,> 100000 nM
same,GI50,OVCAR-8 ovarian,< 10 nM
same,TGI,OVCAR-8 ovarian,> 100000 nM
same,GI50,PC-3 prostate,< 10 nM
same,TGI,PC-3 prostate,> 100000 nM
same,GI50,RPMI-8226 leukemia,< 10 nM
same,TGI,RPMI-8226 leukemia,2230 nM
same,GI50,RXF 393 renal,< 10 nM
same,TGI,RXF 393 renal,12900 nM
same,GI50,SF-268 CNS,29.6 nM
same,TGI,SF-268 CNS,> 100000 nM
same,GI50,SF-295 CNS,29.5 nM
same,TGI,SF-295 CNS,12500 nM
same,GI50,SF-539 CNS,< 10 nM
same,TGI,SF-539 CNS,272 nM
same,GI50,SK-MEL-2 melanoma,15400 nM
same,TGI,SK-MEL-2 melanoma,> 83500 nM
same,GI50,SK-MEL-28 melanoma,2690 nM
same,TGI,SK-MEL-28 melanoma,36100 nM
same,GI50,SK-MEL-5 melanoma,< 10 nM
same,TGI,SK-MEL-5 melanoma,25.4 nM
same,GI50,SK-OV-3 ovarian,455 nM
same,TGI,SK-OV-3 ovarian,> 100000 nM
same,GI50,SN12C renal,< 10 nM
same,TGI,SN12C renal,> 100000 nM
same,GI50,SNB-19 CNS,< 10 nM
same,TGI,SNB-19 CNS,> 100000 nM
same,GI50,SNB-75 CNS,< 10 nM
same,TGI,SNB-75 CNS,29.3 nM
same,GI50,SR leukemia,< 10 nM
same,TGI,SR leukemia,2660 nM
same,GI50,SW-620 colon,< 10 nM
same,TGI,SW-620 colon,> 100000 nM
same,GI50,TK-10 renal,25000 nM
same,TGI,TK-10 renal,> 100000 nM
same,GI50,U251 CNS,< 10 nM
same,TGI,U251 CNS,> 100000 nM
same,GI50,UACC-257 melanoma,11400 nM
same,TGI,UACC-257 melanoma,47600 nM
same,GI50,UACC-62 melanoma,< 10 nM
same,TGI,UACC-62 melanoma,24200 nM
same,GI50,UO-31 renal,192 nM
same,TGI,UO-31 renal,> 45100 nM
